How the values were obtained:
[1] = system: E. coli counts / microbial contamination in beef purge; assay: Beef purge study of LAE materials (aerobic plate count); format: cell-based; conditions: 0.5 g in 10 mL beef purge
Method: About 30 mL of purge was isolated from two beef tenderloin packages and transferred to three test tubes (10 mL/tube). As set forth in Table 5 below, 0.5 g LAE HCl was added to the purge in sample 5 and 0.5 g LAE monolaurate was added to the purge in sample 6. Sample 7 was the positive control and contained no LAE derivative.
The samples were mixed using a vortex mixer and E. coli counts were determined by plating about 1.0 mL on aerobic plate count 3M Petrifilm™ plates for time 0 readings. The test tubes were then stored in a refrigerator (4° C.) and E. coli counts were determined by plating about 1.0 mL on aerobic plate count 3M Petrifilm™ at 24 and 48 hours. As set forth in Table 6, below, both LAE HCl and LAE Monolaurate eliminated over 99% of the microbial contamination at the 24 and 48 hour time points.

[2] = system: E. coli (strain ATCC 4157); assay: Nutrient broth study of LAE materials (aerobic plate count of E. coli culture); format: cell-based; conditions: 0.5 g in 50 mL E. coli broth culture; for Aerobe Count Trial 1 CFU/g / Aerobe Count Trial 1 Log CFU/g / Aerobe Count Trial 1 Mean Log CFU/g / Aerobe Count Trial 2 CFU/g / Aerobe Count Trial 2 Log CFU/g / Aerobe Count Trial 2 Mean Log CFU/g: 45° C.; for growth of bacteria: over the 48 hour time period
Method: A culture of Difco nutrient broth (available from Weber Scientific, Hamilton, N.J., United States of America) and E. coli (strain ATCC® 4157™ KWIK STIK™, available from MicroBioLogics, Inc., St. Cloud, Minn., United States of America) was prepared by adding 1 tube of the E. coli to 400 mL of broth medium and incubating overnight at 37° C. Particularly, sample 1 was the positive control, sample 2 contained 0.5 g LAE HCl, sample 3 contained 0.5 g LAE monolaurate, and Sample 4 was the negative control.
Samples 1-4 were incubated at 45° C. and the number of E. coli counts was determined by plating about 1.0 mL of each sample onto aerobic plate count 3M Petrifilm™ plates (available from 3M Microbiology Products, St. Paul, Minn., United States of America) at 0, 24, and 48 hour time points. The experiments were conducted in duplicate.

Row | Structure (SMILES) | % Reduction ([1]; 0 hrs) | Avg. CFU/g ([1]; 0 hrs) | Log CFU/g Mean ([1]; 0 hrs) | % Reduction ([1]; 24 hrs at 4° C.) | Avg. CFU/g ([1]; 24 hrs at 4° C.) | Log CFU/g Mean ([1]; 24 hrs at 4° C.) | % Reduction ([1]; 48 hrs at 4° C.) | Avg. CFU/g ([1]; 48 hrs at 4° C.) | Log CFU/g Mean ([1]; 48 hrs at 4° C.) | Aerobe Count Trial 1 CFU/g ([2]; 0 hrs) | Aerobe Count Trial 1 Log CFU/g ([2]; 0 hrs) | Aerobe Count Trial 1 Mean Log CFU/g ([2]; 0 hrs) | Aerobe Count Trial 2 CFU/g ([2]; 0 hrs) | Aerobe Count Trial 2 Log CFU/g ([2]; 0 hrs) | Aerobe Count Trial 2 Mean Log CFU/g ([2]; 0 hrs) | Aerobe Count Trial 1 CFU/g ([2]; 24 hrs) | Aerobe Count Trial 1 Log CFU/g ([2]; 24 hrs) | Aerobe Count Trial 1 Mean Log CFU/g ([2]; 24 hrs) | Aerobe Count Trial 2 CFU/g ([2]; 24 hrs) | Aerobe Count Trial 2 Log CFU/g ([2]; 24 hrs) | further results
1 | CCCCCCCCCCCC(=O)N[C@@H](CCCN=C(N)N)C(=O)OCC.Cl [LAE HCl, ethyl n-lauroyl-L-arginate hydrochloride salt] | 99.766% | <1.000E+02 CFU/g | <2.00 Log CFU/g | 99.990% | <1.000E+02 CFU/g | <2.00 Log CFU/g | 99.999% | <1.000E+02 CFU/g | <2.00 Log CFU/g | 1 CFU/g | 0.00 Log CFU/g | 0 Log CFU/g | 1 CFU/g | 0.00 Log CFU/g | 0 Log CFU/g | 1 CFU/g | 0.00 Log CFU/g | 0 Log CFU/g | 1 CFU/g | 0.00 Log CFU/g | Aerobe Count Trial 2 Mean Log CFU/g ([2]; 24 hrs): 0 Log CFU/g; Aerobe Count Trial 1 CFU/g ([2]; 48 hrs): 1 CFU/g; Aerobe Count Trial 1 Log CFU/g ([2]; 48 hrs): 0.00 Log CFU/g; Aerobe Count Trial 1 Mean Log CFU/g ([2]; 48 hrs): 0 Log CFU/g; Aerobe Count Trial 2 CFU/g ([2]; 48 hrs): 1 CFU/g; Aerobe Count Trial 2 Log CFU/g ([2]; 48 hrs): 0.00 Log CFU/g; Aerobe Count Trial 2 Mean Log CFU/g ([2]; 48 hrs): 0 Log CFU/g; growth of bacteria [2]: no growth of bacteria
2 | CCCCCCCCCCCC(=O)N[C@@H](CCCNC(=N)N)C(=O)OCC.CCCCCCCCCCCC(=O)O [LAE monolaurate, ethyl n-lauroyl-L-arginate laurate complex] | 8.798% | 3.890E+04 CFU/g | 4.59 Log CFU/g | 90.880% | 8.913E+04 CFU/g | 4.95 Log CFU/g | 99.960% | 2.818E+03 CFU/g | 3.45 Log CFU/g | 1 CFU/g | 0.00 Log CFU/g | 0 Log CFU/g | 1 CFU/g | 0.00 Log CFU/g | 0 Log CFU/g | 1 CFU/g | 0.00 Log CFU/g | 0 Log CFU/g | 1 CFU/g | 0.00 Log CFU/g | Aerobe Count Trial 2 Mean Log CFU/g ([2]; 24 hrs): 0 Log CFU/g; Aerobe Count Trial 1 CFU/g ([2]; 48 hrs): 1 CFU/g; Aerobe Count Trial 1 Log CFU/g ([2]; 48 hrs): 0.00 Log CFU/g; Aerobe Count Trial 1 Mean Log CFU/g ([2]; 48 hrs): 0 Log CFU/g; Aerobe Count Trial 2 CFU/g ([2]; 48 hrs): 1 CFU/g; Aerobe Count Trial 2 Log CFU/g ([2]; 48 hrs): 0.00 Log CFU/g; Aerobe Count Trial 2 Mean Log CFU/g ([2]; 48 hrs): 0 Log CFU/g; growth of bacteria [2]: no growth of bacteria

Reference: patent US20120087968A1, “Antimicrobial Packaging Material and Methods of Making and Using the Same” (CRYOVAC, INC., priority 2010, published 2012)
